Results as given in ChEMBL document CHEMBL3992540, “Novel indolin-2-one-based sulfonamides as carbonic anhydrase inhibitors: Synthesis, in vitro biological evaluation against carbonic anhydrases isoforms I, II, IV and VII and molecular docking studies” (Eur J Med Chem, 2017).

Columns and labels:
[1] = biological target: Carbonic anhydrase 7 (Homo sapiens, UniProt P43166); assay: Inhibition of human recombinant carbonic anhydrase 7 incubated for 15 mins prior to testing by stopped-flow CO2 hydration assay
Sequence of Carbonic anhydrase 7 (P43166 whole entry): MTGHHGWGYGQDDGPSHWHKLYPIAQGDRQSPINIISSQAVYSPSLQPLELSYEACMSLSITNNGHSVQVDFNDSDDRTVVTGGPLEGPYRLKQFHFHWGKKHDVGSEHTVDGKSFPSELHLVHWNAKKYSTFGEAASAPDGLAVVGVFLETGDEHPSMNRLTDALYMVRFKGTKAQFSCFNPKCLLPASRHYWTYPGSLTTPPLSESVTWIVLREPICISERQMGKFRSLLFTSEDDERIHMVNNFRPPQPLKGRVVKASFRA

[2] = biological target: Carbonic anhydrase 1 (Homo sapiens, UniProt P00915); assay: Inhibition of human recombinant carbonic anhydrase 1 incubated for 15 mins prior to testing by stopped-flow CO2 hydration assay
Sequence of Carbonic anhydrase 1 (P00915 whole entry): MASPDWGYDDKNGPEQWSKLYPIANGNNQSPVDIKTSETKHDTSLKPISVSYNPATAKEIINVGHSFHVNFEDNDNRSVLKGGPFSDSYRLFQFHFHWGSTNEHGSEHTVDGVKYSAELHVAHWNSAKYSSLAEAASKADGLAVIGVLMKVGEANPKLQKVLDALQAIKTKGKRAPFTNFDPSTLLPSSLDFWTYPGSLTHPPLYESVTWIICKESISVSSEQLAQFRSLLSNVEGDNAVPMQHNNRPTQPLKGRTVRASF

[3] = biological target: Carbonic anhydrase 4 (Homo sapiens, UniProt P22748); assay: Inhibition of human recombinant carbonic anhydrase 4 incubated for 15 mins prior to testing by stopped-flow CO2 hydration assay
Sequence of Carbonic anhydrase 4 (P22748 whole entry): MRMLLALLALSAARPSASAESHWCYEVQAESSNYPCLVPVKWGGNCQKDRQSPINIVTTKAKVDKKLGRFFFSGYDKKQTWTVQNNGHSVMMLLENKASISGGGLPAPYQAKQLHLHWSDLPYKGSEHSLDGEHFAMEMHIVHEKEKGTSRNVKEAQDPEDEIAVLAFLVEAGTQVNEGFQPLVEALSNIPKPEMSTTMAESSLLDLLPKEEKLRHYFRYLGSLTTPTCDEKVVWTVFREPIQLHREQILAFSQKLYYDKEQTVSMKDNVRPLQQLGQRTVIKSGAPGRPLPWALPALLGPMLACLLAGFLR

[4] = biological target: Carbonic anhydrase 2 (Homo sapiens, UniProt P00918); assay: Inhibition of human recombinant carbonic anhydrase 2 incubated for 15 mins prior to testing by stopped-flow CO2 hydration assay

Structure (SMILES)	Ki [1]	Ki [2]	Ki [3]	Ki [4]
CN1C(=O)/C(=N\CCc2ccc(S(N)(=O)=O)cc2)c2cc(Cl)ccc21	91 nM	668 nM	31.2 nM	7.7 nM
NS(=O)(=O)c1ccc(CC/N=C2\C(=O)N(Cc3ccccc3)c3ccc(Br)cc32)cc1	–	6150 nM	–	–
NS(=O)(=O)c1ccc(CC/N=C2\NC(=O)/C(=C3/C(=O)Nc4ccccc43)S2)cc1	–	875 nM	–	262 nM
NS(=O)(=O)c1ccc(CC/N=C2\C(=O)N(Cc3ccccc3)c3ccccc32)cc1	536 nM	746 nM	–	–
Cc1cc(C)c2c(c1)/C(=N/CCc1ccc(S(N)(=O)=O)cc1)C(=O)N2	90.9 nM	256 nM	–	50.5 nM
CN1C(=O)/C(=N\CCc2ccc(S(N)(=O)=O)cc2)c2ccccc21	28.6 nM	42 nM	–	–
NS(=O)(=O)c1ccc(CC/N=C2\NC(=O)CS2)cc1	13.2 nM	93.9 nM	79.4 nM	6.6 nM
NS(=O)(=O)c1ccc(CC/N=C2\C(=O)Nc3ccccc32)cc1	–	92.5 nM	–	–
Cc1ccc2c(c1)/C(=N/CCc1ccc(S(N)(=O)=O)cc1)C(=O)N2	–	316 nM	–	–
NS(=O)(=O)c1ccc(CC/N=C2\NC(=O)/C(=C3/C(=O)Nc4ccc([N+](=O)[O-])cc43)S2)cc1	–	265 nM	–	28.6 nM
Cc1ccc2c(c1)/C(=C1/S/C(=N/CCc3ccc(S(N)(=O)=O)cc3)NC1=O)C(=O)N2	67.2 nM	845 nM	–	63.9 nM
CN1C(=O)/C(=N\CCc2ccc(S(N)(=O)=O)cc2)c2cc(Br)ccc21	–	64.9 nM	–	5.9 nM
COc1ccc2c(c1)/C(=N/CCc1ccc(S(N)(=O)=O)cc1)C(=O)N2	–	206 nM	–	–
NS(=O)(=O)c1ccc(CC/N=C2\C(=O)N(Cc3ccccc3)c3ccc(Cl)cc32)cc1	> 10000 nM	8550 nM	–	–
NS(=O)(=O)c1ccc(CC/N=C2\NC(=O)/C(=C3/C(=O)Nc4ccc(Cl)cc43)S2)cc1	–	4450 nM	–	302 nM
NS(=O)(=O)c1ccc(CC/N=C2\C(=O)Nc3ccc(Br)cc32)cc1	–	81.5 nM	–	–
NS(=O)(=O)c1ccc(CC/N=C2\C(=O)Nc3ccc(Cl)cc32)cc1	–	64.1 nM	–	–
NS(=O)(=O)c1ccc(CC/N=C2\NC(=O)/C(=C3/C(=O)Nc4ccc(Br)cc43)S2)cc1	79.3 nM	3600 nM	40.7 nM	157 nM
